According to patent US20080234254A1, “Inhibitors of Histone Deacetylase” (UNIVERSITY OF LEEDS, priority 2004, published 2008):
Where two headings read alike, the source gives them in different places.

How the values were obtained:
NCI-H23 = test: Screening against cancer cell lines: NCI-H23 (Non-Small Cell Lung); format: cell-based
Description: Screening of Benzamide Derivatives Against Cancer Cell Lines Tables 1 and 2 tabulate by way of example the results obtained for compounds (4) and (6).
8 non-small cell lung cancer cell lines were screened against both compound (4) and MS275.

[1] = system: ovarian cancer cell lines; test: Comparison test versus MS275: 6 ovarian cancer cell lines; format: cell-based; details: in 3 cell lines of 6 ovarian cancer cell lines screened
Description: 6 ovarian cancer cell lines were screened against both compound (4) and MS275.

C=C(CN1CCc2ccccc2C1)c1ccc(C(=O)Nc2ccccc2N)cc1 [Compound (4), N-(2-Amino-phenyl)-4-[1-(3,4-dihydroisoquinolin-2(1H)-ylmethyl)vinyl]benzamide]
GI50 (NCI-H23; Homo sapiens, NCI-H23, Non-Small Cell Lung, Table 1, read-out: GI50): 178 nM | CC50 (NCI-H23; Homo sapiens, NCI-H23, Non-Small Cell Lung, Table 1, read-out: LC50 (the source's name)): 11400 nM | GI50 (NCI-H23; Homo sapiens, NCI-H23, non-small cell lung cancer, comparison versus MS275, read-out: potency (quantity not named; values match GI50 of Table 1)): 180 nM | TGI (NCI-H23; NCI-H23, Non-Small Cell Lung, Table 1): 1500 nM | potency over MS275 [1]: > 2 fold
